Results reported in patent publication US10457707B2, “Substituted urea depsipeptide analogs as activators of the CLPP endopeptidase” (priority 2015, dated 2019).
≈ marks a conversion by molar mass, not a printed value. Like-named read-outs stand apart in the source and are kept apart here. *1 amine or outer side, *2 acyl side, *3 side chain or, on linkers, in order; H or OH if unused. Where a SMILES comes first, the peptide text is derived from it. Bridges are numbered along the chain shown (N, C = ends). [ ]: non-standard residue; d: D form. The star is where a group is joined. ξ: configuration not given here. Phe(3,5-F2) = N[C@@H](Cc1cc(F)cc(F)c1)C(=O)O; ξPro(4S-Me) = C[C@@H]1CNC(C(=O)O)C1; Heptenoyl(2E) = CCCC/C=C/C(=O)*; NH(4-Me-phenyl) = Cc1ccc(N*)cc1; aThr = C[C@H](O)[C@H](N)C(=O)O; X5 = O=C(C1COCCN1[*:1])[*:2]; Pip = O=C(O)[C@@H]1CCCCN1; NMeA = CN[C@@H](C)C(=O)O; CO = O=C([*:1])[*:2]; ξP = O=C(O)C1CCCN1

Tests used:
Format in all cases: cell-based
[1] = test system: Vero (kidney epithelial cells; ATCC CCL-81); experiment: Cytotoxicity assay (CellTiter-Glo cell viability, 72 hours); conditions: Vero cells, 72 hours, growth inhibition; read-out: Cytotoxicity IC50
Description: Cytotoxicity was determined by determining the effect of compounds on cell viability. Vero (kidney epithelial cells; ATCC CCL-81) monolayers were trypsinized and 5000 cells/well were seeded (10-15% confluency) into white-wall, flat bottom 96 well microwell plates (Corning) using enriched Dulbecco's Modified Eagle's Medium (Hyclone:DMEM/High Glucose) containing 10% Fetal Bovine Serum (ATCC-30-2020). Plates were incubated overnight at 37° C. in the presence of 5% CO2. Drug-free media was then replaced with media containing serial dilutions of test compound or DMSO carrier. After an additional 72 hours of incubation, viability was indirectly measured using the CellTiter-Glo® Luminescent Cell Viability (Promega) assay. Assay plates were read at peak emission wavelength of 560 nm using a EnVision® Multilabel Plate Reader (Perkin Elmer) or PHERAstar FS Multilabel reader (BMG, Cary, N.C.). […] USA, www.graphpad.com]. For each experiment, compounds were tested in duplicate. IC50 values presented are the range of two biologically independent experiments.

[2] = test system: Staphylococcus aureus, USA 300 wherein ClpP is inactivated; experiment: Minimal inhibitory concentration assay
Procedure, shortened: (§1)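 CLSI broth microdilution: two-fold compound dilutions from 200 μM final, ~10^5 cfu/mL inoculum, aerobic overnight incubation at 37 °C. MIC read visually as lowest concentration preventing growth; S. aureus USA 300 compared with its ClpP-inactivated counterpart to check ClpP dependence.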

[3] = test system: Staphylococcus aureus, USA 300; experiment: Minimal inhibitory concentration assay; conditions: USA300, read-out: Minimal Inhibitory Concentrations S. aureus USA 300
Procedure, shortened: as §1

[4] = test system: Streptococcus pyogenes, ATCC 700294; experiment: Minimal inhibitory concentration assay (microbroth dilution)
Procedure, shortened: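 CLSI broth microdilution: two-fold serial compound dilutions in appropriate broth, inoculated and incubated aerobically overnight at 37° C. MIC read visually as lowest concentration preventing bacterial growth.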

[5] = test system: Bacillus subtilis, ATCC 23857; experiment: as above
Procedure, shortened: as §1

[6] = test system: Staphylococcus aureus, ATCC 29213; experiment: as above; conditions: ATCC29213, read-out: Minimal Inhibitory Concentrations S. aureus ATCC 29213
Procedure, shortened: as §1

[7] = test system: Staphylococcus aureus, NRS70; experiment: as above
Procedure, shortened: as §1

[8] = test system: Enterococcus faecalis, ATCC 33186; experiment: as above; conditions: Enterococcus faecalis, ATCC33186; read-out: Minimal Inhibitory Concentrations E. faecalis ATCC 33186
Procedure, shortened: as §1

[9] = test system: Streptococcus pneumoniae, R6; experiment: Minimal inhibitory concentration assay; conditions: read-out: Minimal Inhibitory Concentrations S. pneumoniae R6
Description: It is understood, that in various aspects, the MIC is determined by a microbroth dilution method. […] In a still further aspect, the MIC is determined by a microbroth dilution method using Staphylococcus aureus, NRS70. […] In an even further aspect, the MIC is determined by a microbroth dilution method using Streptococcus pneumoniae, DAW27. […] In an even further aspect, the MIC is determined using Staphylococcus aureus, USA 300. In a still further aspect, the MIC is determined using Streptococcus pneumoniae, R6. In a further aspect, the MIC is determined using Staphylococcus aureus, USA 300 and compared to the MIC determined using Staphylococcus aureus, USA 300 wherein ClpP is inactivated, thus allowing confirmation that killing is via a ClpP-dependent pathway.
Two fold serial dilutions of test compound in 100 μL of the appropriate broth media were first prepared in 96-well round bottom microtiter plates (Nalgene Nunc International, Rochester, N.Y., USA). […] The plates were then incubated aerobically at 37° C. All strains were incubated overnight. After incubations, in all cases the MIC was recorded as the lowest concentration of drug that prevented bacterial growth. The bacterial strains for which MIC was determined as described in Table 4.

[10] = Streptococcus pyogenes, ATCC700294, read-out: Minimal Inhibitory Concentrations S. pyogenes ATCC 700294
[11] = Bacillus subtilis, ATCC23857, read-out: Minimal Inhibitory Concentrations B. subtilis ATCC 23857
[12] = Staphylococcus aureus, NRS70, read-out: Minimal Inhibitory Concentrations S. aureus NRS70

`CCCC/C=C/C(=O)N[C@@H](Cc1cc(F)cc(F)c1)C(=O)N[C@@H]1C(=O)N2CCC[C@H]2C(=O)N2CCCC[C@H]2C(=O)N[C@@H](C)C(=O)N2CCC[C@H]2C(=O)O[C@H]1C` [ADEP 2719, reference compound] ({Heptenoyl(2E)}-[Phe(3,5-F2)][aThr]P[Pip]AP; ester 2-C) was tested, and the IC50 [1] was 37.7 ± 3.4 µM, the “Minimal Inhibitory Concentrations S. aureus USA 300 ΔClpP” value [2] was 500 µM and the MIC [3] was < 0.19 µM. The MIC ([4]; Streptococcus pyogenes, ATCC700294; read-out: Minimal Inhibitory Concentrations S. pyogenes ATCC 700294) was < 0.2 µM, the MIC ([5]; Bacillus subtilis, ATCC23857; read-out: Minimal Inhibitory Concentrations B. subtilis ATCC 23857) was < 0.01 µM and the MIC [6] was 0.07 µM (≈ 0.054 µg/mL). For the same molecule, the MIC ([7]; Staphylococcus aureus, NRS70; read-out: Minimal Inhibitory Concentrations S. aureus NRS70) was 0.08 µM (≈ 0.0617 µg/mL) and the MIC [8] was 0.08 µM (≈ 0.0617 µg/mL).

In the case of `Cc1ccc(NC(=O)N[C@@H](Cc2cc(F)cc(F)c2)C(=O)N[C@@H]2C(=O)N3CCCC3C(=O)N(C)[C@@H](C)C(=O)N[C@@H](C)C(=O)N3CCCC3C(=O)O[C@H]2C)cc1` (stereo partly drawn) [Compound 25, (2S)-3-(3,5-difluorophenyl)-N-((6S,9S,11aS,17S,18S)-6,9,10,18-tetramethyl-5,8,11,16,20-pentaoxohexadecahydro-1H,5H,16H-dipyrrolo[2,1-c:2′,1′-l][1]oxa[4,7,10,13]tetraazacyclohexadecin-17-yl)-2-(3-(p-tolyl)ureido)propanamide] ({NH(4-Me-phenyl)-CO}-[Phe(3,5-F2)][aThr][ξP][NMeA]A[ξP]; ester 2-C), the MIC [9] is reported as 0.254 µM (≈ 0.195 µg/mL), the IC50 [1] is reported as 10.8 ± 1 µM and the “Minimal Inhibitory Concentrations S. aureus USA 300 ΔClpP” value [2] is reported as 200 µM. The MIC [3] was 0.78 µM (≈ 0.599 µg/mL), the MIC [4, 10] was 1 µM (≈ 0.768 µg/mL) and the MIC [5, 11] was 0.02 µM (≈ 0.0154 µg/mL). The MIC [6] was 0.78 µM (≈ 0.599 µg/mL) and the MIC [7, 12] was 0.78 µM (≈ 0.599 µg/mL).

For `Cc1ccc(NC(=O)N[C@@H](Cc2cc(F)cc(F)c2)C(=O)N[C@@H]2C(=O)N3CCCC3C(=O)N(C)[C@@H](C)C(=O)N[C@@H](C)C(=O)N3C[C@@H](C)CC3C(=O)O[C@H]2C)cc1` (stereo partly drawn) [Compound 26, (2S)-3-(3,5-difluorophenyl)-N-((2S,6S,9S,11aS,17S,18S)-2,6,9,10,18-pentamethyl-5,8,11,16,20-pentaoxohexadecahydro-1H,5H,16H-dipyrrolo[2,1-c:2′,1′-l][1]oxa[4,7,10,13]tetraazacyclohexadecin-17-yl)-2-(3-(p-tolyl)ureido)propanamide] ({NH(4-Me-phenyl)-CO}-[Phe(3,5-F2)][aThr][ξP][NMeA]A[ξPro(4S-Me)]; ester 2-C), the MIC [9] was 0.125 µM (≈ 0.0977 µg/mL), the IC50 [1] was 40.5 ± 3.8 µM and the “Minimal Inhibitory Concentrations S. aureus USA 300 ΔClpP” value [2] was 200 µM. It also gave an MIC [3] of 0.39 µM (≈ 0.305 µg/mL), an MIC [4, 10] of 0.5 µM (≈ 0.391 µg/mL) and an MIC [5, 11] of 0.03 µM (≈ 0.0235 µg/mL). The MIC [6] was 0.2 µM (≈ 0.156 µg/mL) and the MIC [7, 12] was 0.2 µM (≈ 0.156 µg/mL).

With `Cc1ccc(NC(=O)N[C@@H](Cc2cc(F)cc(F)c2)C(=O)N[C@@H]2C(=O)N3CCCC3C(=O)N3CCOCC3C(=O)N[C@@H](C)C(=O)N3C[C@@H](C)CC3C(=O)O[C@H]2C)cc1` (stereo partly drawn) [Compound 33, (S)-3-(3,5-difluorophenyl)-2-(3-(p-tolyl)ureido)-N-((6aS,12S,13S,15aS,17S,21S,23aS)-13,17,21-trimethyl-6,11,15,20,23-pentaoxooctadecahydro-6H,11H,15H-[1,4]oxazino[3,4-i]dipyrrolo[2,1-c:2′,1′-l][1]oxa[4,7,10,13]tetraazacyclohexadecin-12-yl)propanamide] ({NH(4-Me-phenyl)-CO}-[Phe(3,5-F2)][aThr][ξP][X5]A[ξPro(4S-Me)]; ester 2-C) the MIC [9] was 0.098 µM (≈ 0.0794 µg/mL), the IC50 [1] was 41 ± 4.3 µM and the “Minimal Inhibitory Concentrations S. aureus USA 300 ΔClpP” value [2] was 200 µM. The MIC [3] was 0.2 µM (≈ 0.162 µg/mL), the MIC [4, 10] was 0.39 µM (≈ 0.316 µg/mL) and the MIC [5, 11] was 0.2 µM (≈ 0.162 µg/mL). The MIC [6] was 0.2 µM (≈ 0.162 µg/mL) and the MIC [7, 12] was 0.1 µM (≈ 0.081 µg/mL).
